# Legend:
# [1] = Sedimentation / suspension time-dynamics curve of UCN (UV 500 nm); type: physicochemical; settings: standing for 120 min; UCN with or without RE-1 coating
# Protocol: 3 mg of UCN was mixed with 1.5 mg of RE-1 or its analogues RE-2, RE-3, or RE-5 as well as PEG, and the binding between them was performed according to a binding method. The excess and unbound RE-1 was washed off. The resultant precipitate was resuspended in 3 mL water, sonicated for 1 min, and then placed into a UV detection cell (X72053, Alpha Laboratories Ltd, UK). Observation was made using a UV spectrophotometer (DU-640, Beckman, USA) at an absorption wavelength of 500 nm for 120 min to obtain a time-dynamics curve.
# HeLa cells [2] = assay: Diffusibility / adherence on coverslip with cells facing upward or downward; type: cell-based
# Protocol: HeLa cells were cultured on a coverslip (22 mm×22 mm), which was then placed into a 6-well plate with the cells facing upward or downward, and the coverslip was supported by a sterilized glass cube (2 mm×2 mm×2 mm). Then, 4 mL DMEM medium (Gibco) containing the rare-earth upconversion nanophosphors (UCN, UCP) with or without RE-1 coating was slowly poured into the 6-well plate, such that the cells were fully immersed in the medium, and the coverslip is just located at the middle of the height of the liquid. The cells were placed into a cell incubator at 37° C. for 2 hr, and then washed with PBS 3 times. The UCNs adhered to the surfaces of the cells were observed under a fluorescence microscope (Olympus IX71, Olympus, Japan) equipped with a 980-nm infrared laser (MDL-980 nm 1 W, Changchun New Industries Optoelectronics Tech. Co., Ltd, China).
# HeLa cells [3] = assay: Effect of RE-1 analogues on cytotoxicity induced by UCN, UCP (MTT, PI staining); type: cell-based; settings: 1 mg/mL, 24 hr
# Protocol: MTT cell vitality assay is performed as follows: The cells to which samples have been added are cultured for 24 hr, and then 0.5 mg/mL MTT solution is added and cultured for 4 hr. The MTT solution in the well is discharged, and then 200 μL DMSO is added, followed by gently shaking the plate on a shaking table for 10 min. Detection is performed using microplate reader (ELX800, purchased from BIO-TEK) at a wavelength of 570 nm.
# PI staining assay is performed as follows: The cells to which samples have been added are cultured for 24 hr, and then to the culture Hoechst 33342 (10 mM, purchased from Sigma, USA, Catalog #: B2261) and PI (Propidium Iodide) (10 mM, purchased from Beyotime Biotechnology, Catalog #: ST511) are added for 10 min of staining. Then, the cells are detected and photographed under a fluorescence microscope (Olympus IX71, purchased from Olympus). The number of the cells counted by this assay was 500.
# HeLa cells were inoculated into 96-well cell culturing plate at a density of about 1-2×10^4 cells/well, and cultured overnight for further use. At first, the medium was replaced with fresh DMEM medium, and then 1 mg/mL UCN, UCP, UCN+PEG (containing 10 mg PEG), UCN+RE-1, UCP, UCP+RE-1, UCN+RE-2, UCN+RE-3, UCN+RE-5, UCP+RE-2, UCP+RE-3, or UCP+RE-5 were added, respectively. After culturing for 24 hr, MTT cell viability assay and PI staining were performed to detect the mortality of the cells.
sequence,measurement,setting,value
"ACTARSPWICG [RE-1, RE-0 with terminal amino acids A and G added]",suspension / sedimentation of UCN in water,[1],still in suspension
same,"amount of nanophosphors (UCN, UCP) coated with RE-1 adhered to the cell surfaces","HeLa cells [2]; cell-facing-upward group, 37° C., 2 hr",significantly reduced
same,"diffusibility of the rare-earth upconversion nanophosphors (UCN, UCP) in solution",HeLa cells [2]; cells facing upward versus downward,reduced the diffusibility
same,inhibitory effect of coating on cytotoxicity induced by UCN and UCP,HeLa cells [3],RE-1>RE-3>RE-5
